Experimental data from patent US20140249143A1, “Compounds And Methods For Enhancing Innate Immune Responses” (GlaxoSmithKline LLC, priority 2011, published 2014).

What was measured:
[1] = system: respiratory syncytial virus (RSV); test: RSV plaque assay on HEp-2 cells; format: cell-based
Experimental: A broad spectrum of antiviral activity of Example 1 was accessed by testing it for potency against other viruses. (See FIG. 8). […] RSV (long form) was inoculated on the layer of HEp-2 cells at multiplicity of infection of <0.001. After 4 hour post infection, the inoculum was replaced with 0.3% agarose containing MEM and various concentration of Example 1 or IFNα. The cells were incubated for up to 5-6 days until the plaques were visible. The cells were then fixed with 3% formaldehyde and stained with neutral red for visualization.

[2] = system: interferon stimulated genes (ISGs); test: Expression of interferon stimulated genes in HCV replicon cells (real time RT-PCR); format: cell-based
Source text: The up-regulation of interferon stimulated genes upon treatment with Example 1 was monitored by quantitative real time RT-PCR using specific primers for each gene, as shown in FIG. 3. […] Total RNA was isolated using RNeasy 96 kit (Qiagen) and converted to cDNA using High Capacity cDNA reverse transcription kit (Applied Biosystems). For real time PCR, the cDNA was used for PCR reactions using TaqMan Fast Universal PCR master mix (Applied Biosystems) and specific primers (Applied Biosystems). As housekeeping genes, actin and GAPDH were used for normalization. Data was calculated by the ΔΔCt method and fold change determined compared to DMSO-treated control samples.

[3] = system: reconstructed human epidermis (RHE) keratinocytes; test: JAK/STAT induction in reconstructed human epidermis (western blot, real-time PCR); format: cell-based; details: 10 μM (IFN-alpha 100 U/mL), 6 and 72 hrs
Experimental: First, reconstructed human epidermis (“RHE”) consisting of cultured human keratinocyte cells were incubated in triplicate with media containing either the media alone, media+0.1% DMSO, media containing 10 μM of several putative JAK/STAT activator compounds described herein in Tables 1 and 2 (Example 1, Example 2, Example 11, and compound no. 89 (as a negative control)), or media containing 100 U/mL of a positive control Interferon-alpha (IFN-alpha) recombinant protein at 37° C. in a humidified atmosphere containing 5% CO2, for 6 and 72 hours.
At the end of the incubation period, the RHE tissues were cut into two sections. One section was ¼ of the total size and the second section was […].

[4] = system: HCV replication in 1b HCV replicon cells; test: siRNA knockdown of JAK/STAT pathway factors in 1b HCV replicon cells; format: cell-based, Hepatitis C virus; details: 2 μM, 30 h, 50 nM siRNA
Experimental: 50 nM of siRNA against each gene (Dharmacon, on-target SMART pool: L-020209-00-0005 (IFNAR1), L-015411-00-0005 (IFNAR2), L-007981-00-0005 (IL28RA), L-007926-00-0005 (IL10RB), L-011-57-00-0005(IFNGR1), L-012713-00-0005 (IFNGR2), L-003145-00-0005 (JAK1), L-003146-00-0005 (JAK2), L-003182-00-0005 (Tyk2), L-003147-00-0 005 (JAK3), L-003543-00-0005 (STAT1), L-012064-00-0005 (STAT2)) was transfected in the 1b HCV replicon cells using lipofectamine RNAiMax™ (Invitrogen) according to the manufacturer's protocol. A scrambled irrelevant smart pool control siRNA was included as a control (IRR). After 3 days post transfection, the cells were treated with DMSO, IFNα (5 U/ml), IFNγ (100 U/ml), and Example 1 (2 μM) in triplicate for 30 h. The cells were harvested with Bright-Glo (Promega) and the HCV replication was measured by luminescence. […] To measure the efficiency of the knockdown, total RNA was harvested from the siRNA-transfected cells at day 3 post transfection and analyzed by real time RT-PCR.

[5] = target: T1, human JAK1 (Homo sapiens, UniProt P23458); test: JAK1 reconstitution in U4A and 2fGH cells (phosphor-STAT1 western blot, Taqman mRNA); format: cell-based
T1 construct: expressed in transfected cells; host or cells: U4A cells (JAK1-deficient derivative of the human fibroblast line 2fGH), transduced with a baculovirus mammalian expression system
T1 sequence (P23458 whole entry): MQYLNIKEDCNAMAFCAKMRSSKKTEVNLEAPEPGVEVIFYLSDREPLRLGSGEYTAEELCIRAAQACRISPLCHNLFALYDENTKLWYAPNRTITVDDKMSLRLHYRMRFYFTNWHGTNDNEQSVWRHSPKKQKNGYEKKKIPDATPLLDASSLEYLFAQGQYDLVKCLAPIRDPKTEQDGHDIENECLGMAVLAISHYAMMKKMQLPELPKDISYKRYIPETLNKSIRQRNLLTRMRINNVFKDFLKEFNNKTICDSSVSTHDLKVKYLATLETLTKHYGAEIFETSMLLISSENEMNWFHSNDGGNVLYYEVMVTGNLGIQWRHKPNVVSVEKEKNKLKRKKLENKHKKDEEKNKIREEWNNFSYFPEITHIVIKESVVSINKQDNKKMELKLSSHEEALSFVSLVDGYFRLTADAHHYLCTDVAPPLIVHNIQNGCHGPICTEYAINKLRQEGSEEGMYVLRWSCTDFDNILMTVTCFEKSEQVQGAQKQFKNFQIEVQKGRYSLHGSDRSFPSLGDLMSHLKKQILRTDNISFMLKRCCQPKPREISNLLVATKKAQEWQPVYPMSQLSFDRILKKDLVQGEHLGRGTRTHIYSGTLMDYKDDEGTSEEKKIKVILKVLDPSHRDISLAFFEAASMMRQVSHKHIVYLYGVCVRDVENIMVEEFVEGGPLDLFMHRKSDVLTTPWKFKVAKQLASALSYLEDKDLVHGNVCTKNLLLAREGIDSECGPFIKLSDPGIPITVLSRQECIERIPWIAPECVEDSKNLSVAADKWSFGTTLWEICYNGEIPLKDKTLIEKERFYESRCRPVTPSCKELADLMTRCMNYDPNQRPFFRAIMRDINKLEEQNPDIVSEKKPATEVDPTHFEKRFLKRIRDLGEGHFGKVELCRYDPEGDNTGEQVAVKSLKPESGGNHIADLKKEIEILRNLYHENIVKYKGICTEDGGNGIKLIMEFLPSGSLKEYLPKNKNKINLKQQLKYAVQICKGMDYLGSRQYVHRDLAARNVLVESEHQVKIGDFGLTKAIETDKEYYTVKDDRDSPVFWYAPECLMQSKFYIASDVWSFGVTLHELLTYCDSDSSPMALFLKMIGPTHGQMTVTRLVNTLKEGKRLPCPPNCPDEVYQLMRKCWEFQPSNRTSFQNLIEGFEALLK
Experimental: 2fGH and U4A cells were obtained from the Cleveland Clinic. 2fGH is a human fibroblast cell line and U4A cell line is a derivative 2fGH harboring a defect in JAK1 expression (Muller, et al., Nature 366, 129-135 (1993)). Green fluoroscent protein (GFP) or human JAK1 was transduced in U4A cells by baculovirus mammalian expression system. After 24 hours post transduction, the cells were treated with DMSO, Example 1 (10 μM), IFNα (100 U/ml), IFNβ (100 U/ml), or IFNγ (100 U/ml). Untransduced U4A cells and 2fGH cells were included as controls for 6 or 18 hours. The cells were harvested at indicated time points and used for detecting phosphor-STAT1 by western blot (FIG. 10, panel A) or for mRNA analysis by Taqman quantitation (FIG. 10, panel B).
The total cell lysates were analyzed on a 4-20% SDS-PAGE gradient gel and followed by immunoblotting using anti-phopho STAT1 antibody (Cell Signaling). The level of actin was monitored as a loading control. The bands were visualized by the alkaline phosphatase activity conjugated with the secondary antibody (Promega) using ProtoBlot II AP system (Promega).
Gene expression was measured using TaqMan Fast Universal PCR Master Mix (Applied Biosystems) and gene specific probes and murine primers in HT7900 FAST System (Invitrogen). As housekeeping genes, actin and GAPDH were used for normalization. Data was calculated by the ΔΔCt method and fold change determined compared to non-treated control samples.

FC(F)(F)c1cc(C(F)(F)F)c2ccc3nc(-c4nnco4)cn3c2n1 [Compound 1, 2-[2,4-bis(trifluoromethyl)imidazo[1,2-a]1,8-naphthyridin-8-yl]-1,3,4-oxadiazole]
RSV plaques ([1]; 1 μM, compared to DMSO-only): reduced the number of plaques
RSV plaques ([1]; 5 μM): no visible clear plaque
induction of IFNα and β mRNA (IFNA1, IFNA2, IFNB1) ([2]; 2 μM): no induction
induction of ISGs (ISG15, Mx1, OAS1, OAS2, CXCL10, IFIH1, STAT2) ([2]; 2 μM, time course 1.5-48 h): induction of various known ISGs
time of maximum induction of ISGs ([2]; Example 1 2 μM, IFNα 100 U/ml): 8 h
Stat1 phosphorylation (western blot) [3]: Stat1 phosphorylation
antiviral activity after knockdown of IFNAR2, JAK1, STAT1, or STAT2 [4]: affected the antiviral activity
antiviral activity after knockdown of JAK1 [4]: fully abolished
antiviral activity after knockdown of other Janus kinases (JAKs) [4]: did not show any effect
CXCL9 expression in U4A cells transduced with JAK1 ([5]; 10 μM): marked up-regulation
OAS2 mRNA in parental cell line (2fGH) ([5]; 10 μM): marked increase
activation of STAT1 in U4A cells transduced with JAK1 ([5]; Example 1 10 μM, IFNα 100 U/ml): activation of STAT1 was observed
p-STAT1 in U4A cells (JAK1 deficient) transduced with GFP ([5]; Example 1 10 μM, IFNα 100 U/ml): not present
